In US12370143B2, “Compound or salt thereof and lipid particles” (FUJIFILM Corporation, priority 2018, dated 2025):
Read-outs that look alike come from different tables or passages of the source.

What was measured:
[1] = system: Factor VII (FVII) protein; assay: Measurement of Factor VII (FVII) protein in mouse plasma after FVII-siRNA lipid particles; assay type: in vivo, C57BL6/J mice; settings: 0.1 mg/kg caudal vein, plasma 24 hours after administration, PBS group = 100%
Experimental: The Factor VII (FVII) protein was measured according to the method described in Nature Biotechnology (2010) 28, 172-176. C57BL6/J mice were randomly grouped (n=3). A dispersion liquid of nucleic acid lipid particles was prepared by the same method as that in <Preparation of nucleic acid lipid particles>, except that FVII-siRNA having the sequence described in Molecular Therapy (2009) 17, p. 878 was used instead of Luc-siRNA. The dispersion liquid was administered to the caudal vein of the mice at a dosage of 0.1 mg/kg. For comparison, PBS at the same volume was administered to the caudal vein of the mice. Twenty four hours after the administration, blood was collected from the caudal vena cava, thereby obtaining plasma. The amount of FVII protein was quantified using the obtained plasma and a Biophen FVII assay kit (Aniara).
The FVII amount in the plasma sample of each individual in the PBS administration group was regarded as 100%, and the ratio of the FVII amount in the plasma sample of each individual to 100% was adopted as a measurement value.

[2] = system: DMS273 cells constantly expressing Luc; assay: Target reporter protein (Luc) knockdown in cell, reporter protein assay; assay type: cell-based; settings: Homo sapiens, DMS-273
Experimental: The nucleic acid lipid particles prepared by the same method as that in <Preparation of nucleic acid lipid particles> by using the compounds described in Table 3 were evaluated by reporter assay by the following method.
By using pGL4.50 Luc2 (E1310 Promega), DMS273 cells (human small cell lung cancer) (European Collection of Authenticated Cell Cultures) constantly expressing Luc were prepared. RPMI (Gibco) (10% FBS (Gibco), 1% Penicillin-Streptomycin (Gibco), and 200 μg/mL Hygromycin (Wako)) was used as a culture medium. DMS273 cells (2.0×10^3) constantly expressing luciferase (Luc) were seeded in a 96-well plate and cultured in a 5% CO2 incubator for 24 hours, and then the medium was replaced. Then, 10 μL of each of the dispersion liquids of lipid particles diluted with PBS (Gibco) to yield a concentration of 1 to 1,000 nmol/L was added to the 96-well plate, and the final concentration was adjusted to 0.1 to 100 nmol/L (total amount of liquid: 110 μl). Thereafter, the cells were cultured in a 5% CO2 incubator for 24 hours, the medium was then replaced, and the cells were further cultured for 24 hours.
After the viable cell count was determined, the expression amount of Luc was quantified using a Steady Glo assay kit (Promega), and the knockdown efficiency was calculated according to the following equation. Then, the IC50 concentration at which the expression amount of Luc was knocked down to 50% was calculated.

[3] = Encapsulation rate of siRNA in nucleic acid lipid particles (Luc2-siRNA); assay type: physicochemical; settings: compound/DSPC/cholesterol/DMG-PEG2000 50/10/38.5/1.5
Method in brief: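 Encapsulation rate was calculated as (total − outer-phase siRNA)/total ×100. Total siRNA was quantified spectrophotometrically after lipid-dissolving ethanol precipitation, and unencapsulated siRNA by RiboGreen in TE (ex 485/em 535 nm). The particles were test lipid/DSPC/cholesterol/DMG-PEG2000 at 50/10/38.5/1.5, formed by microfluidic mixing with Luc2-siRNA at pH 4 and dialyzed against PBS.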

[4] = Particle size of nucleic acid lipid particles (Luc2-siRNA); assay type: physicochemical; settings: compound/DSPC/cholesterol/DMG-PEG2000 50/10/38.5/1.5
Method in brief: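 Particle size was read by ELS-Z2 light scattering on nucleic acid lipid particles after dialysis against PBS. These were made by micromixing Luc2-siRNA (19.7 μmol/L, pH 4 acetate) with ethanolic lipids (test lipid/DSPC/cholesterol/DMG-PEG2000 50/10/38.5/1.5, 20 mmol/L) at 3:1 water:oil, siRNA/lipid 339 mol/mol.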

[5] = Luc2-siRNA lipid particles using the compound, siRNA 0.1 to 100 nmol/L, concentration at which Luc expression is knocked down to 50%, read-out: IC50

SMILES: CCCCCCCCC(CCCCCCCC)C(=O)OCCCCCCC(CCCCCCOC(=O)C(CCCCCCCC)CCCCCCCC)OC(=O)OCCN(CC)CCN(CC)CC [Example 74, 7-(((2-((2-(Diethylamino)ethyl)(ethyl)amino)ethoxy)carbonyl)oxy)tridecane-1,13-diylbis(2-octyldecanoate)]
- Relative amount of FVII protein (%) [1]: 4%
- IC50 [2]: 22 nM

SMILES: CCCCCCCC/C=C\CCCCCCCC(=O)OCCCCCCC(CCCCCCOC(=O)CCCCCCC/C=C\CCCCCCCC)OC(=O)OCCN(CCN(CC)CC)C(C)C [Example 48, 7-(((2-((2-(Diethylamino)ethyl)(isopropyl)amino)ethoxy)carbonyl)oxy)tridecane-1,13-diyldioleate]
- Relative amount of FVII protein (%) [1]: 20%
- IC50 [2, 5]: 43 nM

SMILES: CCCCCCCC(CCCCCCC)C(=O)OCCCCCCC(CCCCCCOC(=O)C(CCCCCCC)CCCCCCC)OC(=O)OCCN(CC)CCN(CC)CC [Example 76, 7-(((2-((2-(Diethylamino)ethyl)(ethyl)amino)ethoxy)carbonyl)oxy)tridecane-1,13-diylbis(2-heptylnonanoate)]
- Relative amount of FVII protein (%) [1]: 4%
- IC50 [2, 5]: 18 nM

SMILES: CCCCCCCC(CCCCCCC)CC(=O)OCCCCCCC(CCCCCCOC(=O)CC(CCCCCCC)CCCCCCC)OC(=O)OCCN(CC)CCN(CC)CC [Example 70, 7-(((2-((2-(diethylamino)ethyl)(ethyl)amino)ethoxy)carbonyl)oxy)tridecane-1,13-diylbis(3-heptyldecanoate)]
- Relative amount of FVII protein (%) [1]: 6%
- IC50 [2]: 24 nM

SMILES: CCCCCCC(CCCCCC)CC(=O)OCCCCCCC(CCCCCCOC(=O)CC(CCCCCC)CCCCCC)OC(=O)OCCN(CC)CCN(CC)CC [Example 67, 7-(((2-((2-(Diethylamino)ethyl)(ethyl)amino)ethoxy)carbonyl)oxy)tridecane-1,13-diylbis(3-hexylnonanoate)]
- Relative amount of FVII protein (%) [1]: 5%
- IC50 [2, 5]: 22 nM

SMILES: CCCCCCCC/C=C\CCCCCCCC(=O)OCCCCCCC(CCCCCCOC(=O)CCCCCCC/C=C\CCCCCCCC)OC(=O)OCCN(CC)CCN(CC)CC [Example 41, 7-(((2-((2-(diethylamino)ethyl)(ethyl)amino)ethoxy)carbonyl)oxy)tridecane-1,13-diyldioleate]
- Relative amount of FVII protein (%) [1]: 18%
- IC50 [2, 5]: 14 nM

SMILES: CCCCCCCCC(CCCCCCCC)CC(=O)OCCCCCCC(CCCCCCOC(=O)CC(CCCCCCCC)CCCCCCCC)OC(=O)OCCN(CC)CCN(CC)CC [Example 65, 7-(((2-((2-(Diethylamino)ethyl)(ethyl)amino)ethoxy)carbonyl)oxy)tridecane-1,13-diylbis(3-octylundecanoate)]
- Relative amount of FVII protein (%) [1]: 11%

SMILES: CCCCC/C=C\C/C=C\CCCCCCCCN(CCCCCCCC/C=C\C/C=C\CCCCC)C(=O)CCN(C)CCN(C)C [Comparative Example 7, 3-((2-(dimethylamino)ethyl)(methyl)amino)-N,N-di((9Z,12Z)-octadeca-9,12-dien-1-yl)propanamide, reference compound]
- IC50 [2, 5]: > 100 nM
- Nucleic acid encapsulation rate [3]: 87%
- Particle size (nm) [4]: 71.9 nm

SMILES: CCCCCCCCC(CCCCCC)C(=O)OCCCCCCC(CCCCCCOC(=O)C(CCCCCC)CCCCCCCC)OC(=O)OCCN(CC)CCN(CC)CC (stereo not drawn) [Example 56, 7-(((2-((2-(Diethylamino)ethyl)(ethyl)amino)ethoxy)carbonyl)oxy)tridecane-1,13-diylbis(2-hexyldecanoate)]
- Relative amount of FVII protein (%) [1]: 3%
- IC50 [2, 5]: 19 nM

SMILES: CCCCC/C=C\C/C=C\CCCCCCCCC(CCCCCCCC/C=C\C/C=C\CCCCC)OC(=O)OCCN(C)CCN(C)CCO [Example 27, (6Z,9Z,28Z,31Z)-heptatriaconta-6,9,28,31-tetraen-19-yl(2-((2-((2-hydroxyethyl)(methyl)amino)ethyl)(methyl)amino)ethyl)carbonate]
- IC50 [2, 5]: 31 nM
- Nucleic acid encapsulation rate [3]: 75%
- Particle size (nm) [4]: 75.2 nm

SMILES: CCCCCCCCC(CCCCCC)COC(=O)CCCC(CCCCCC)OC(=O)OCCN(CCO)CCN(CC)CC (stereo not drawn) [Example 102, 2-Hexyldecyl 3-ethyl-12-hexyl-6-(2-hydroxyethyl)-10-oxo-9,11-dioxa-3,6-diazahexadecan-16-oate]
- IC50 [2, 5]: 27 nM
- Nucleic acid encapsulation rate [3]: 70%
- Particle size (nm) [4]: 147.2 nm

SMILES: CCCCCCCCC(CCCCCC)C(=O)OCCCCC(CCCCOC(=O)C(CCCCCC)CCCCCCCC)OC(=O)OCCN(CC)CCN(CC)CC (stereo not drawn) [Example 73, 5-(((2-((2-(Diethylamino)ethyl)(ethyl)amino)ethoxy)carbonyl)oxy)nonane-1,9-diylbis(2-hexyldecanoate)]
- Relative amount of FVII protein (%) [1]: 1%
- IC50 [2]: 24 nM

SMILES: CCCCCCCCC(CCCCCC)C(=O)OCCCCCCC(CCCCCCOC(=O)C(CCCCCC)CCCCCCCC)OC(=O)OCCN(CCN(CC)CC)C(C)C (stereo not drawn) [Example 62, 7-(((2-((2-(Diethylamino)ethyl)(isopropyl)amino)ethoxy)carbonyl)oxy)tridecane-1,13-diylbis(2-hexyldecanoate)]
- Relative amount of FVII protein (%) [1]: 3%

SMILES: CCCCC/C=C\C/C=C\CCCCCCCCC(CCCCCCCC/C=C\C/C=C\CCCCC)OC(=O)OCCN(C)CCN(C)C [Example 20, 2-((2-(dimethylamino)ethyl)(methyl)amino)ethyl((6Z,9Z,28Z,31Z)-heptatriaconta-6,9,28,31-tetraen-19-yl)carbonate]
- IC50 [2, 5]: 15 nM
- Nucleic acid encapsulation rate [3]: 84%
- Particle size (nm) [4]: 101.6 nm

SMILES: CCCCCCCCCC(CCCCCCC)C(=O)OCCCCCCC(CCCCCCOC(=O)C(CCCCCCC)CCCCCCCCC)OC(=O)OCCN(CC)CCN(CC)CC (stereo not drawn) [Example 58, 7-(((2-((2-(Diethylamino)ethyl)(ethyl)amino)ethoxy)carbonyl)oxy)tridecane-1,13-diylbis(2-heptylundecanoate)]
- Relative amount of FVII protein (%) [1]: 14%

SMILES: CCCCC/C=C\C/C=C\CCCCCCCCN(CCCCCCCC/C=C\C/C=C\CCCCC)C(=O)OCC1CCCN(C)C1 (stereo not drawn) [Reference Example 2, (1-Methylpiperidin-3-yl)methyl di((9Z,12Z)-octadeca-9,12-dien-1-yl)carbamate, reference compound]
- IC50 [2, 5]: 59 nM
- Nucleic acid encapsulation rate [3]: 85%
- Particle size (nm) [4]: 118.4 nm

SMILES: CCCCCCCCC(CCCCCC)C(=O)OCCCCCC(CCCCCOC(=O)C(CCCCCC)CCCCCCCC)OC(=O)OCCN(CC)CCN(CC)CC (stereo not drawn) [Example 71, 6-(((2-((2-(Diethylamino)ethyl)(ethyl)amino)ethoxy)carbonyl)oxy)undecane-1,11-diylbis(2-hexyldecanoate)]
- Relative amount of FVII protein (%) [1]: 4%

SMILES: CCN(CC)CCN(CC)CCOC(=O)OC(CCCCCCOC(=O)C(CCC(C)CC(C)(C)C)C(C)CC(C)(C)C)CCCCCCOC(=O)C(CCC(C)CC(C)(C)C)C(C)CC(C)(C)C (stereo not drawn) [Example 59, 7-(((2-((2-(Diethylamino)ethyl)(ethyl)amino)ethoxy)carbonyl)oxy)tridecane-1,13-diylbis(2-(4,4-dimethylpentan-2-yl)-5,7,7-trimethyloctanoate)]
- Relative amount of FVII protein (%) [1]: 10%

SMILES: CCCCC/C=C\C/C=C\CCCCCCCCC(CCCCCCCC/C=C\C/C=C\CCCCC)OC(=O)OCCN(C)CCN [Example 26]
- IC50 [2, 5]: 30 nM
- Nucleic acid encapsulation rate [3]: 97%
- Particle size (nm) [4]: 209.8 nm
